Results as given in US12611406B2, “Oxopiperazine derivatives for the treatment of cancer” (Inthera Bioscience AG, priority 2020, dated 2026).

Assays:
Assay type in all cases: in vivo
PR6511 = PR6511 mouse PDX prostate cancer model, daily oral
Experimental: PR6511 represents a model which was not responsive any more to enzalutamide treatment. The dose in the 10 mg/kg group was reduced to 3 mg/kg from day 51 onwards. […] QD: once daily treatment. po: per os.
Due to weight loss, animals of the 10 mg/kg group received a reduced dose of 3 mg/kg on study days 51 to 57.

[1] = Single dose intravenous and oral PK in Beagle dogs (citrate salt); design: AUC(0-t) / AUC(0-inf): unit not given here; conditions: for AUC(0-inf) / AUC(0-t) / Tmax / half-life: both sexes, dog, whole blood
Experimental: This study determined the PK profile of Compound 1 following a single intravenous injection or oral gavage administration to Beagle dogs.
Compound 1 (citrate salt) was administered to two groups of dogs (n=1/sex/group) once by intravenous injection on Day 1, dose levels of 1 (Group 1) or 4 (Group 2) mg/kg/adm, and once by oral gavage on Day 3, dose levels of 3 (Group 1) and 12 (Group 2) mg/kg/adm, respectively. The vehicle was 5% dextrose in water for intravenous and aqueous citrate buffer solution for oral gavage administrations. Relative to each dosing on Days 1 and 3, series of blood samples were collected at pre-dose, 0.083, 0.25, 0.5, 1, 2, 4, and 7 hours for intravenous or at 0.25, 0.5, 1, 2, 4, 7, and 24 hours for oral gavage administration for analysis of Compound 1 concentrations in blood and subsequent calculation of PK parameters. Additional endpoints monitored during this study included mortality, clinical observations and body weight.

[2] = 28-day once weekly oral repeated-dose DRF study in CD-1 mice (mesylate salt), plasma; conditions: male; for Tmax / Cmax / AUC(0-t) / half-life: CD-1, mouse, plasma, po; for AUC(0-t): read-out: AUC0-8h
Experimental: This study explored the PK of Compound 1 after once weekly oral administration of 300 and 600 mg/kg/week for 4 consecutive weeks to male CD-1 mice.
Compound 1 (mesylate salt) was administered in 4 weekly doses by oral gavage to groups of male CD-1 mice (n=3/group) at dose levels of 300 and 600 mg/kg bodyweight per week. A suspension of 0.5% methylcellulose (w/v) in sterile water served as vehicle. Blood samples for PK analysis were collected after the second (Day 8) and fourth (Day 22) dosing at pre-dose, 0.25, 0.5, 1, 2, 4, 8, and 24 hours (the latter time point only after the 2nd dose) after administration.
Total plasma concentrations of Compound 1 were analyzed using a qualified LC-MS/MS method.

[3] = 5-day daily oral repeated-dose pilot study in Beagle dogs (mesylate salt); conditions: for Tmax / Cmax / half-life: both sexes, Beagle, dog, plasma, po
Experimental: The objective of the study was to determine the TK profile of Compound 1, following its daily administration through oral gavage for 5 consecutive days to Beagle dogs. Compound 1 (mesylate salt) was administered daily to groups of dogs (n=2/sex/group) by oral gavage (PO) for 5 consecutive days at doses of 1.5 and 2 mg/kg/day. The vehicle was 0.5% (w/v) methylcellulose in sterile water. For TK evaluation blood samples were collected from each dog on Days 1 and 5 at the following timepoints relative to dosing: pre-dose, 15 min, 30 min, as well as 1, 2, 4, 6, 8, 12, and 24 hours post-dose.

[4] = 5-day daily oral repeated-dose pilot study in cynomolgus monkeys (mesylate salt); conditions: for Tmax: all groups
Experimental: The objective of the study was to determine the TK profile of Compound 1 following its daily administration through oral gavage (po) for 5 days to cynomolgus monkeys.
Naïve male and female cynomolgus monkeys (2 animals/sex/group) were orally administered Compound 1 (mesylate salt) at dose levels of 8, 12 or 16 mg/kg/day for 5 consecutive days. The vehicle was 0.5% (w/v) methyl cellulose 400 in sterile water. For TK evaluation blood samples were collected from each animal on Days 1 and 5 at pre-dose, 15 min, 30 min, as well as 1, 2, 4, 6, 8, 12, and 24 hours post-dose.

[5] = 10 mg/kg (3 mg/kg on days 51-57) once daily
[6] = 300 mg/kg, 300 mg/kg/week, 2nd dose (Week 2)
[7] = 300 mg/kg, 300 mg/kg/week, 4th dose (Week 4)
[8] = 600 mg/kg, 600 mg/kg/week, 2nd dose (Week 2)
[9] = 600 mg/kg, 600 mg/kg/week, 4th dose (Week 4)

## CC(C)C[C@@H]1NCCN([C@@H](CC(C)C)C(=O)N2CCC3(C[C@@H]2C)OCC(CN2CCCC2)CO3)C1=O (stereo partly drawn) [Compound 1, (S)-3-isobutyl-1-((S)-4-methyl-1-((S)-8-methyl-3-(pyrrolidin-1-ylmethyl)-1,5-dioxa-9-azaspiro[5.5]undecan-9-yl)-1-oxopentan-2-yl)piperazin-2-one]
PR6511; 6 mg/kg once daily
  complete responders: 3/8
  partial responder: 2/8
  tumor-free survivors: 3/8
PR6511; [5]
  complete responders: 4/8
  partial responders: 2/8
  tumor-free survivors: 3/8
PR6511; 10 mg/kg for approx. 8-10 days, then breaks/3 mg/kg days 51-57
  tumor response: full tumor regressions
PR6511; 3 weeks after end of treatment, fully regressed tumors
  tumor re-growth: no re-growth of tumors
PR6511; 6 or 10 mg/kg daily oral, study days 38-57
  tumor response: substantial tumor regressions up to erradication of tumors
PR6511; PR6511
  PSA in blood: effective PSA reduction
[1]; IV 1 mg/kg
  Cl: 0.0057 (mg/kg)/(nmo/L)/h
  Vss: 0.004 (mg/kg)/(nmo/L)
[1]; IV 4 mg/kg
  Cl: 0.0014 (mg/kg)/(nmo/L)/h
  Vss: 0.004 (mg/kg)/(nmo/L)
[1]; IV 1 and 4 mg/kg/adm or oral gavage 3 and 12 mg/kg/adm
  tolerability: well tolerated
[1]; Beagle, IV 1 mg/kg
  AUC(0-inf): 0.089
  AUC(0-t): 0.063
  Tmax: 4.8 min
  half-life: 30 min
[1]; Beagle, po 12 mg/kg
  AUC(0-inf): 2.39
  AUC(0-t): 1.91
  Tmax: 15 min
  half-life: 198 min
[1]; beagle, IV 4 mg/kg
  AUC(0-inf): 1.45
  AUC(0-t): 1.29
  Tmax: 4.8 min
  half-life: 150 min
[1]; beagle, po 3 mg/kg
  AUC(0-inf): 0.289
  AUC(0-t): 0.182
  Tmax: 15 min
  half-life: 156 min
[1]; po 3 mg/kg
  Cl: 0.0052 (mg/kg)/(nmo/L)/h
[1]; po 12 mg/kg
  Cl: 0.0025 (mg/kg)/(nmo/L)/h
[2]; 300 mg/kg, 300 mg/kg/week, 2nd dose
  Tmax: 1 h
[2]; [6]
  Cmax: 8130 ng/mL
  AUC(0-t): 13600 ng·h/mL
[2]; 300 mg/kg, 300 mg/kg/week, 4th dose
  Tmax: 1.3 h
[2]; [7]
  Cmax: 8370 ng/mL
  AUC(0-t): 38200 ng·h/mL
[2]; 600 mg/kg, 600 mg/kg/week, 2nd dose
  Tmax: 5.7 h
[2]; [8]
  Cmax: 13400 ng/mL
  AUC(0-t): 47800 ng·h/mL
[2]; 600 mg/kg, 600 mg/kg/week, 4th dose
  Tmax: 0.5 h
[2]; [9]
  Cmax: 28800 ng/mL
  AUC(0-t): 125000 ng·h/mL
[2]; 300 mg/kg/week, 2nd dose
  half-life: 246 min
[2]; 600 mg/kg/week, 4th dose
  half-life: 5150 min
[2]; once weekly orally for 4 weeks at 300 and 600 mg/kg/week
  tolerability: well tolerated
[3]; 1.5 mg/kg, Day 1
  Total AUC (AUC(0-inf)): 116 ng·h/mL
  Cmax: 25.4 ng/mL
[3]; 1.5 mg/kg, Day 5
  Total AUC (AUC(0-inf)): 213 ng·h/mL
  Cmax: 44.6 ng/mL
[3]; 2 mg/kg, Day 1
  Total AUC: 173 ng·h/mL
  Cmax: 33.6 ng/mL
  Tmax: ~24 min
[3]; 2 mg/kg, Day 5
  Total AUC: 270 ng·h/mL
  Cmax: 32.3 ng/mL
  Tmax: ~126 min
[3]; 1.5 mg/kg
  Tmax: ~30 min
[3]; 1.5 mg/kg, Day 1, read-out: elimination half-life (converted)
  half-life: 270 min
[3]; 1.5 mg/kg, Day 5, read-out: elimination half-life (converted)
  half-life: 372 min
[3]; 2 mg/kg, Day 1, read-out: T1/2 (converted)
  half-life: 282 min
[3]; 2 mg/kg, Day 5, read-out: T1/2 (converted)
  half-life: 516 min
[3]; daily oral for 5 consecutive days at 1.5 mg/kg/day
  tolerability: well-tolerated
[4]; 8 mg/kg/day, Day 1
  Total AUC: 85 ng·h/mL
[4]; 8 mg/kg/day, Day 5
  Total AUC: 175 ng·h/mL
[4]; 12 mg/kg/day, Day 1
  Total AUC: 106 ng·h/mL
[4]; 12 mg/kg/day, Day 5
  Total AUC: 329 ng·h/mL
[4]; 16 mg/kg/day, Day 1
  Total AUC: 351 ng·h/mL
[4]; 16 mg/kg/day, Day 5
  Total AUC: 561 ng·h/mL
[4]; both sexes, cynomolgus monkey, serum, po, 8 mg/kg/day, Day 1, read-out: Peak serum levels (Cmax)
  Cmax: 45 ng/mL
[4]; both sexes, cynomolgus monkey, serum, po, 8 mg/kg/day, Day 5, read-out: Cmax
  Cmax: 64 ng/mL
[4]; both sexes, cynomolgus monkey, serum, po, 12 mg/kg/day, Day 1, read-out: Peak serum levels (Cmax)
  Cmax: 42 ng/mL
[4]; both sexes, cynomolgus monkey, serum, po, 12 mg/kg/day, Day 5, read-out: Cmax
  Cmax: 72 ng/mL
[4]; both sexes, cynomolgus monkey, serum, po, 16 mg/kg/day, Day 1, read-out: Peak serum levels (Cmax)
  Cmax: 136 ng/mL
[4]; both sexes, cynomolgus monkey, serum, po, 16 mg/kg/day, Day 5, read-out: Cmax
  Cmax: 112 ng/mL
[4]; both sexes, cynomolgus monkey, serum, po, Day 1
  Tmax: 30 to 54 min
[4]; both sexes, cynomolgus monkey, serum, po, Day 5
  Tmax: 30 to 105 min
[4]; both sexes, cynomolgus monkey, serum, po, all groups and time points, read-out: half-life (T1/2)
  half-life: 300 to 420 min
[4]; oral 8, 12, and 16 mg/kg/day for 5 consecutive days, slight body weight loss, changes in hematology, urinalysis, clinical chemistry
  tolerability: tolerated
